Patent EP2272817A1, “PAI-1 INHIBITOR” (Institute of Medicinal Molecular Design, Inc., priority 2008, dated 2009)

Target: recombinant human PAI-1 (Homo sapiens, UniProt P05121)
Assay: Test Example 2: Human PAI-1 Inhibitory Activity (pH 7.4 HEPES buffer, 10 minutes incubation with two-chain tPA)
Format: biochemical
Design: purchased Molecular Innovations, Inc
Settings: read-out: Inhibition Rate of PAI-1 Activity (%)
Description: 0.1 M HEPES, 0.1 M NaCl. 1 mM EDTA. 0.1 % Polyethylene glycol 8,000 (Hampton Research Corporation),
2 mM Dimethyldecylphoshine oxide [Apo-10] (Fluka Corporation)

recombinant human PAI-1, sequence (P05121 24-402): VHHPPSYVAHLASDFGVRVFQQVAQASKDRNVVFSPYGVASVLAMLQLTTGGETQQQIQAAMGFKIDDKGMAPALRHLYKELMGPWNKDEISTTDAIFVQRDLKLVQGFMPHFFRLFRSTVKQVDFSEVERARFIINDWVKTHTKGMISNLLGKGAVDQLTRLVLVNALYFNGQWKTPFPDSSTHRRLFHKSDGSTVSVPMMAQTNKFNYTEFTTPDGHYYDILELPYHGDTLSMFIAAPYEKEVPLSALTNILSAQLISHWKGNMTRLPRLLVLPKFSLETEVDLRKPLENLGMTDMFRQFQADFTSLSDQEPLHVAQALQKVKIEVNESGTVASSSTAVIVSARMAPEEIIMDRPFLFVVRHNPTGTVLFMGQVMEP

SMILES	inhibition at 0.1 µM	inhibition at 0.3 µM	inhibition at 1 µM	inhibition at 3 µM	inhibition at 10 µM	inhibition at 25 µM
CC(C)(C)c1ccc(Oc2cc(Nc3ccc(OC(F)(F)F)cc3)ccc2/C=C/C(=O)O)cc1 [Compound 531]	3%	38%	94%	96%		
CC(C)(C)c1ccc(Oc2cc(Nc3ccc(OC(F)(F)F)cc3)ccc2CCC(=O)O)cc1 [Compound 532]	12%	59%	> 99%	> 99%		
CCCCN(CC(=O)O)c1ccc(-c2ccc(OC(F)(F)F)cc2)cc1Oc1ccc(C(C)(C)C)cc1 [Compound 533]	25%	83%	97%	97%		
CN(CC(=O)O)c1ccc(-c2ccc(OC(F)(F)F)cc2)cc1Oc1ccc(C(C)(C)C)cc1 [Compound 534]	13%	21%	84%	> 99%		
CC(C)(C)c1ccc(Oc2cc(Oc3ccc(OC(F)(F)F)cc3)ccc2OCC(=O)O)cc1 [Compound 538]	0%	12%	87%	98%		
O=C(O)/C=C/c1cc(-c2ccc(OC(F)(F)F)cc2)ccc1OCCCCCOc1ccc(-c2ccc(OC(F)(F)F)cc2)cc1/C=C/C(=O)O [Compound 543]	0%	1%	73%	94%		
O=C(O)CCc1cc(-c2ccc(OC(F)(F)F)cc2)ccc1OCCCCCOc1ccc(-c2ccc(OC(F)(F)F)cc2)cc1CCC(=O)O [Compound 544]	0%	3%	56%	92%		
CC(C)(C)c1ccc(Sc2cc(-c3ccc(OC(F)(F)F)cc3)ccc2C(=O)O)cc1 [Compound 547]	4%	17%	97%	> 99%		
CC(C)(C)c1ccc(Sc2cc(-c3ccc(OC(F)(F)F)cc3)ccc2C(=O)C(=O)O)cc1 [Compound 548]	0%	16%	95%	> 99%		
CC(C)(C)c1ccc(C(=O)c2cc(-c3ccc(OC(F)(F)F)cc3)ccc2OCC(=O)O)cc1 [Compound 549]	23%	22%	84%	> 99%		
CC(C)(C)c1ccc(Cc2cc(-c3ccc(OC(F)(F)F)cc3)ccc2OCC(=O)O)cc1 [Compound 550]	0%	2%	81%	> 99%		
CC(C)(C)c1ccc(CCc2cc(-c3ccc(OC(F)(F)F)cc3)ccc2OCC(=O)O)cc1 [Compound 551]	0%	4%	92%	> 99%		
O=C(O)CC(=O)N(Cc1ccccc1)c1ccc(-c2ccc(OC(F)(F)F)cc2)cc1F [Compound 602]			9%	18%	78%	> 99%
CC(C)(C)c1ccc(CN(C(=O)CCCC(=O)O)c2ccc(-c3ccc(OC(F)(F)F)cc3)cc2)cc1 [Compound 604]			0%	20%	36%	46%
CC(C)(C)c1ccc(CN(C(=O)CC(=O)O)c2ccc(-c3ccc(OC(F)(F)F)cc3)cc2)cc1 [Compound 608]			11%	59%	95%	95%
CC(C)(C)c1ccc(N(CC(=O)O)c2ccccc2Oc2ccc(OC(F)(F)F)cc2)cc1 [Compound 610]			49%	94%	97%	86%
O=C(O)C(=O)N(Cc1ccc(-c2ccc(OC(F)(F)F)cc2)cc1)c1ccccc1 [Compound 611]			5%	13%	45%	81%
CC(C)(C)c1ccc(N(Cc2ccc(-c3ccccc3)cc2)C(=O)C(=O)O)cc1 [Compound 612]			7%	25%	84%	> 99%
CC(C)(C)c1ccc(-c2ccc(CN(C(=O)C(=O)O)c3ccc(OC(F)(F)F)cc3)cc2)cc1 [Compound 615]			43%	98%	> 99%	95%
CC(C)(C)c1ccc(CN(C(=O)C(=O)O)c2ccc(C(=O)Nc3ccc(OC(F)(F)F)cc3)cc2)cc1 [Compound 617]			6%	64%	> 99%	> 99%
CN(C(=O)c1ccc(N(Cc2ccc(C(C)(C)C)cc2)C(=O)C(=O)O)cc1)c1ccc(OC(F)(F)F)cc1 [Compound 618]			0%	24%	78%	> 99%
CC(C)(C)c1ccc(CN(C(=O)C(=O)O)c2ccc(N3CCN(c4ccccc4)CC3)cc2)cc1 [Compound 627]			0%	14%	57%	> 99%
CC(C)(C)c1ccc(CN(C(=O)C(=O)O)c2ccc(N3CCN(c4ccc(OC(F)(F)F)cc4)CC3)cc2)cc1 [Compound 628]			40%	> 99%	> 99%	90%
O=C(O)C(=O)N(Cc1ccc(-c2ccc(OC(F)(F)F)cc2)cc1)c1ccccc1-c1ccccc1 [Compound 632]	0%	9%	31%	97%		
O=C(O)CCCCCCOc1ccc(-c2ccc(OC(F)(F)F)cc2)cc1N(CCCCc1ccccc1)C(=O)C(=O)O [Compound 633]	11%	11%	39%	61%		
O=C(O)C(=O)N(CCCCc1ccccc1)c1cc(-c2ccc(OC(F)(F)F)cc2)ccc1OC1C2CC3CC(C2)CC1C3 (centres unmarked) [Compound 634]	17%	37%	> 99%	92%		

Other lines, results leading:

inhibition at 0.1 µM	inhibition at 0.3 µM	inhibition at 1 µM	inhibition at 3 µM	inhibition at 10 µM	inhibition at 25 µM	SMILES
14%	30%	45%	91%			CC(C)(C)c1ccc(Oc2cc(-c3ccc(OC(F)(F)F)cc3)ccc2N(CCCCc2ccccc2)C(=O)C(=O)O)cc1 [Compound 635]
2%	21%	72%	81%			CC(C)(C)c1ccc(Oc2ccc(-c3ccc(OC(F)(F)F)cc3)cc2N(CCCCc2ccccc2)C(=O)C(=O)O)cc1 [Compound 636]
0%	5%	80%	71%			CCCCC1CCC(Oc2ccc(-c3ccc(OC(F)(F)F)cc3)cc2N(CCCCc2ccccc2)C(=O)C(=O)O)CC1 (centres unmarked) [Compound 637]
5%	15%	57%	> 99%			O=C(O)C(=O)N(CCCCc1ccccc1)c1cc(-c2ccc(OC(F)(F)F)cc2)ccc1Oc1ccccc1 [Compound 638]
6%	12%	91%	87%			CC(C)[C@@H]1CC[C@@H](C)C[C@H]1Oc1ccc(-c2ccc(OC(F)(F)F)cc2)cc1N(CCCCc1ccccc1)C(=O)C(=O)O [Compound 639]
0%	19%	92%	92%			CCCCCOc1ccc(-c2ccc(OC(F)(F)F)cc2)cc1N(CCCCc1ccccc1)CC(=O)O [Compound 640]
9%	53%	95%	95%			CCCCC(C(=O)O)N(Cc1ccc(C(C)(C)C)cc1)c1cccc(-c2ccc(OC(F)(F)F)cc2)c1 (centres unmarked) [Compound 641]
16%	57%	94%	93%			CCCCC(C(=O)O)N(Cc1ccc(C(C)(C)C)cc1)c1ccc(-c2ccc(OC(F)(F)F)cc2)cc1 (centres unmarked) [Compound 642]
6%	26%	95%	> 99%			CCCCCOc1ccc(-c2ccc(OC(F)(F)F)cc2)cc1CN(C(=O)C(=O)O)c1ccc(C(C)(C)C)cc1 [Compound 645]
4%	15%	38%	86%			O=C(O)CCCCCCCCOc1ccc(-c2ccc(OC(F)(F)F)cc2)cc1N(CCCCc1ccccc1)C(=O)C(=O)O [Compound 646]
27%	43%	95%	98%			CCCCCOc1ccc(-c2ccc(OC(F)(F)F)cc2)cc1CN(CC(=O)O)c1ccc(C(C)(C)C)cc1 [Compound 647]
4%	23%	86%	89%			CCCCCOc1cc(-c2ccc(OC(F)(F)F)cc2)ccc1CN(C(=O)C(=O)O)c1ccc(C(C)(C)C)cc1 [Compound 648]
10%	64%	96%	97%			CCCCCOc1cc(-c2ccc(OC(F)(F)F)cc2)ccc1CN(CC(=O)O)c1ccc(C(C)(C)C)cc1 [Compound 649]
16%	40%	> 99%	> 99%			CCCCCCCOc1cc(N(CCCCc2ccccc2)C(=O)C(=O)O)ccc1-c1ccc(OC(F)(F)F)cc1 [Compound 650]
0%	0%	15%	74%			COc1ccc(-c2ccc(OC(F)(F)F)cc2)cc1N(CCCCc1ccccc1)C(=O)C(=O)O [Compound 651]
